Assay results published in US20110162092A1, “COMPOSITION COMPRISED OF AKAP12 AND USES OF AKAP12 MUTANT ZEBRAFISH AS AN ANIMAL MODEL” (SNU RDB FOUNDATION, priority 2008, published 2011).

Legend:
[1] = system: vein endothelial cells of the AKAP12 knockdown zebrafish; assay: Movement of vein endothelial cells of AKAP12 knockdown zebrafish treated with RhoA signal inhibitor; type: in vivo; details: 200 uM, 44 hours after fertilization
[2] = system: Human Umbilical Vein Endothelial Cells (HUVEC); assay: In vitro permeability assay using HUVEC (RITC-labeled dextran, transwell); type: cell-based; details: AKAP12 siRNA group treated with ROCKOUT, 15 minutes incubation
ve-cadherin = ve-cadherin expression in HUVEC by western-blotting and immunocytochemistry; type: cell-based, human; details: treated with both siRNA regarding AKAP12 and ROCKOUT
Description: To be specific, in the western-blotting, first, cells were dissolved in lysis buffer containing 10 mM HEPES (pH 7.9), 400 mM NaCl, 0.1 mM EDTA, 5% glycerol, 1 mM DTT (D1-dithiothreitol) and protease inhibitor cocktail, and the proteins in cells were quantified using BCA. From the whole cell lysate prepared as explained above, the proteins in cells were isolated according to molecular weight sizes using sodium dodecyl sulfate-polyacrylamide gel electrophoresis, and the proteins were moved to the polyvinyldifluoride membrane (Millipore). After that, blocking was performed, and the primary antibody was treated overnight (for 16 hours) at 4° C. On the next day, secondary antibodies regarding the primary antibodies were treated at room temperature for 2 hours, respectively, and detected using ECL PLUS (Amersham). As for the primary antibodies, VE-cadherin (Santa Cruz Biotechnology); F-actin (Sigma) were used.
As for the immunochemistry, first, cells were seeded in a 0.1% gelatin-coated slide, rinsed with cold PBS, and fixed for 10 minutes at room temperature with 4% paraformaldehyde. After that, the cells were rinsed again three times with PBS, treated with 0.5% Triton X-100 for 5 minutes, rinsed with PBS-T and underwent blocking at room temperature for 30 minutes with 0.1% blocking solution (Roche). […]

[3] = system: zebrafish AKAP12 alpha form mRNA; assay: Genetic defect (phenotype) of zebrafish after microinjecting morpholino, alpha form; type: in vivo
Text: (§1) The present inventors prepared morpholino for the zebrafish AKAP12 alpha form mRNA and zebrafish AKAP12 beta form mRNA knockdown. The preparation of the morpholino was ordered to Gene Tools LLC. The method for morpholino preparation is written in Summerton, J. et al., Anti sense & Nucleic Acid Drug Development 7: 187-95, 1997. The prepared morpholino was so prepared to block the characteristic variant regions of each of the alpha and beta forms from binding to the site of splicing and thus block splicing and developing into mature mRNA, in which the alpha form morpholino was so designed to bind adjacent to 339th base of the AKAP12 alpha form as the sequence of […] (SEQ. ID. NO. 7) 25-mer, and the beta form morpholino was so designed to bind adjacent to the 227th base of the AKAP12 beta form as the sequence of […] (SEQ. ID. NO. 8) 25-mer (see FIG. 1).
(§2) The present invention knocked down zebrafish AKAP12 mRNA by microinjecting the prepared morpholino of <Example 3> into the zebrafish and observed the phenotype.
(§3) First, the inventors microinjected 7 ng and 10 ng of morpholino for AKAP12 mRNA alpha form, and microinjected 7.5 ng of morpholino for AKAP12 mRNA beta form.
(§4) Further, after injecting 3.7 ng, 7.5 ng and 10 ng of morpholino for zebrafish AKAP12 alpha and beta forms, the present inventors could confirm that the genetic defect appears in the beta form at about 7.5 ng and alpha form at about 3.7 ng (see FIG. 4).

[4] = system: zebrafish AKAP12 alpha form; assay: Micro-vasculature defect in brains of AKAP12 alpha form knockdown tg(fli:egfp) zebrafish; type: in vivo; details: 3 ng morpholino; 10 kDa tetramethylrhodamine-dextran after 3 days
Description: The present inventor knocked down the zebrafish AKAP12 alpha form using the transgenic zebrafish ‘tg(fli:egfp)’ in which green fluoresces selectively in the vein endothelial cells, and observed the defect pattern of the micro-vasculatures in brains. To be specific, the inventors knocked down the zebrafish AKAP12 alpha form by microinjecting 3 ng of morpholino for zebrafish AKAP12 alpha form into the transgenic zebrafish (fli:egfp) embryos, and then after 3 days, microinjected 25 mg/ml of red-fluorescent lysine-fixable tetramethylrhodamine-dextran, 10 kDa through the common cardinal vein of the zebrafish, and then observed through the LSM 510 META NLO confocal microscope (Carl Zeiss, Germany).

[5] = system: zebrafish AKAP12 alpha form; assay: Vessel defects of AKAP12 knockdown tg(fli:egfp) zebrafish; type: in vivo; details: 2 ng morpholino; 2000 kDa tetramethylrhodamine-dextran within 48 to 60 hours
Description: The present inventors knocked down the zebrafish AKAP12 alpha and beta forms using the transgenic zebrafish ‘tg(fli:egfp)’ in which green fluoresces selectively in the endothelioyte of the vessels, and observed the defect pattern in the vessels. To be specific, the inventors knocked down the zebrafish AKAP12 alpha and beta forms by microinjecting 2 ng alpha) and 7.5 ng (beta) of morpholino for zebrafish KAAP12 alpha and beta forms, into the transgenic zebrafish ‘fli:egfp’, respectively, and within 48 to 60 hours, microinjected 25 mg/ml of red-fluorescent lysine-fixable tetramethylrhodamine-dextran, 2000 kDa (molecular probes) and observed through the LSM 510 META NLO confocal microscope (Carl Zeiss, Germany).

[6] = system: zebrafish AKAP12 alpha form; assay: Heart defect of AKAP12 alpha form knockdown tg(cmlc:egfp) zebrafish; type: in vivo; details: 3.7 ng morpholino, 1.5 days later
Description: The present inventors knocked down zebrafish AKAP12 alpha form using the transgenic zebrafish ‘tg(cmlc:egfp)’ in which green fluoresces characteristically to the light chain of the heat muscles, and observed the heart defects of the zebrafish. That is, the inventors knocked down the zebrafish AKAP12 alpha form by microinjecting 3.7 ng of morpholino for zebrafish AKAP12 alpha form into the transgenic zebrafish (‘tg(cmlc:egfp)’) embryos, and observed the hearts of the zebrafish after 1.5 days later using the LSM 510 META NLO confocal microscope Carl Zeiss, Germany).

[7] = system: zebrafish AKAP12 alpha form; assay: Hemorrhage of AKAP12 alpha form knockdown zebrafish; type: in vivo
Text: (§5) The present inventors observed the embryos of […] AKAP12 alpha and beta form knockdown zebrafish, and as a result, could observe the bleeding in the 2 to 3 day-old zebrafish.

AKAP12 alpha form mRNA = assay: Zebrafish defect patterns in accordance with morpholino amount, alpha form; type: in vivo
Text: (§6) The present inventors knocked down AKAP12 alpha form mRNA and beta form mRNA using morpholino for zebrafish AKAP12 alpha and beta forms, and observed the defect patterns in accordance with the amounts of morpholino, respectively.

[8] = system: zebrafish AKAP12 beta form mRNA; assay: Genetic defect (phenotype) of zebrafish after microinjecting morpholino, beta form; type: in vivo
Text: as §1, §2, §3, §4

[9] = system: zebrafish AKAP12 beta form; assay: Hemorrhage of AKAP12 beta form knockdown zebrafish; type: in vivo; details: 7.5 ng injected, day 3
Text: as §5

AKAP12 beta form mRNA = assay: Zebrafish defect patterns in accordance with morpholino amount, beta form; type: in vivo
Text: as §6

[10] = morpholino only, control group of rescue test

c1ccc2c(-c3ccncc3)c[nH]c2c1 [ROCKOUT]
movement of vein endothelial cells [1]: the excessive movement of the vein endothelial cells slowed | RITC permeability [2]: decreased permeability | expression of ve-cadherin (ve-cadherin): the expression of ve-cadherin increased back

morpholino for zebrafish AKAP12 alpha form: 25-mer morpholino TCTTACCTGTTAGAGTTATTGTCCC (SEQ. ID. NO. 7), binds adjacent to 339th base of AKAP12 alpha form, blocks splicing (all phosphorodiamidate morpholino (PMO))
mRNA expression pattern of AKAP12 alpha form by RT-PCR ([3]; 7 ng and 10 ng injected, by degree of defect): the zebrafish with severer degree of defects had lower degree of mRNA expression | phenotype: tail portions and mobility ([3]; 7 ng and 10 ng microinjected): crooked or shortened tail portions and abnormal mobility | defect patterns [3, 10]: crooked trunks and bleeding | defect patterns ([3]; only 4 ng morpholino, control group of rat mRNA rescue): defect patterns including crooked and shortened tail and deformed hearts | defect pattern of micro-vasculatures in brains, dextran distribution [4]: non-uniform micro-vasculature in brains and also the red lysine-fixable tetramethylrhodamine-dextran was distributed around the green micro-vasculatures | defect pattern in the vessels, dextran leakage [5]: non-uniform micro-vasculature in the brains and also the red lysine-fixable tetramethylrhodamine-dextran leaked out of the green vessel | heart shape (atriums and ventricles) [6]: elongated atriums and ventricles | heartbeats [6]: non-uniform and weak heartbeats | rate of zebrafish showing hemorrhage ([7]; 3 ng injected, day 3): approximately 50% | rate of zebrafish with hemorrhage versus amount ([7]; 1, 2 and 3 ng in sequence): hemorrhage increased as the amount of injected morpholino increased | defect pattern (AKAP12 alpha form mRNA; 1 ng and 2 ng): bleeding only | defect pattern (AKAP12 alpha form mRNA; 4 ng and more): decreasing bleeding due to severe defects of hearts and other veins | defect pattern (AKAP12 alpha form mRNA; 3 and 4 ng): both the bleeding and defects in heart and trunk veins

morpholino for zebrafish AKAP12 beta form: 25-mer morpholino TACCTTGCCATCTGCGGTTTCTCCA (SEQ. ID. NO. 8), binds adjacent to 227th base of AKAP12 beta form, blocks splicing (all phosphorodiamidate morpholino (PMO))
amount of morpholino at which the genetic defect appears ([8]; 3.7 ng, 7.5 ng and 10 ng injected): about 7.5 ng | phenotype: tail portions and mobility ([8]; 7.5 ng microinjected): crooked or shortened tail portions and abnormal mobility | defect patterns [8, 10]: crooked trunks and bleeding | rate of zebrafish showing hemorrhage [9]: approximately 27% | defect pattern (AKAP12 beta form mRNA; 7.5 ng and 8 ng): both the bleeding and defects of heat and trunk veins concurrently | defect pattern (AKAP12 beta form mRNA; 9 ng or more): only the defects in heart and trunk veins
